One test concerns normal dogs. Description: Chimeric polypeptide intravenous infusion in normal dogs: blood glucose, plasma insulin, plasma cGMP. It is filed as in vivo, dog. The conditions noted are these: normal dogs (n=2), intravenous infusion 10 or 100 pmol/kg/minute for 45 minutes; for plasma insulin: versus base line (FIG. 7); for plasma glucose: versus base line (FIG. 8); for plasma cGMP: versus base line (FIG. 9).

Test [1] concerns normal rats. Nature of the test: Chimeric polypeptide infusion in normal rats: blood glucose and plasma insulin. The format is in vivo, rat. The conditions noted are these: IV infusion 1 pmol/kg/minute for 210 minutes.
Test [2] deals with T1, GC-B particulate guanylate cyclase receptors (Homo sapiens, UniProt P20594).
T1 construct: expressed in transfected cells; host or cells: HEK293
T1 sequence (P20594 23-1047): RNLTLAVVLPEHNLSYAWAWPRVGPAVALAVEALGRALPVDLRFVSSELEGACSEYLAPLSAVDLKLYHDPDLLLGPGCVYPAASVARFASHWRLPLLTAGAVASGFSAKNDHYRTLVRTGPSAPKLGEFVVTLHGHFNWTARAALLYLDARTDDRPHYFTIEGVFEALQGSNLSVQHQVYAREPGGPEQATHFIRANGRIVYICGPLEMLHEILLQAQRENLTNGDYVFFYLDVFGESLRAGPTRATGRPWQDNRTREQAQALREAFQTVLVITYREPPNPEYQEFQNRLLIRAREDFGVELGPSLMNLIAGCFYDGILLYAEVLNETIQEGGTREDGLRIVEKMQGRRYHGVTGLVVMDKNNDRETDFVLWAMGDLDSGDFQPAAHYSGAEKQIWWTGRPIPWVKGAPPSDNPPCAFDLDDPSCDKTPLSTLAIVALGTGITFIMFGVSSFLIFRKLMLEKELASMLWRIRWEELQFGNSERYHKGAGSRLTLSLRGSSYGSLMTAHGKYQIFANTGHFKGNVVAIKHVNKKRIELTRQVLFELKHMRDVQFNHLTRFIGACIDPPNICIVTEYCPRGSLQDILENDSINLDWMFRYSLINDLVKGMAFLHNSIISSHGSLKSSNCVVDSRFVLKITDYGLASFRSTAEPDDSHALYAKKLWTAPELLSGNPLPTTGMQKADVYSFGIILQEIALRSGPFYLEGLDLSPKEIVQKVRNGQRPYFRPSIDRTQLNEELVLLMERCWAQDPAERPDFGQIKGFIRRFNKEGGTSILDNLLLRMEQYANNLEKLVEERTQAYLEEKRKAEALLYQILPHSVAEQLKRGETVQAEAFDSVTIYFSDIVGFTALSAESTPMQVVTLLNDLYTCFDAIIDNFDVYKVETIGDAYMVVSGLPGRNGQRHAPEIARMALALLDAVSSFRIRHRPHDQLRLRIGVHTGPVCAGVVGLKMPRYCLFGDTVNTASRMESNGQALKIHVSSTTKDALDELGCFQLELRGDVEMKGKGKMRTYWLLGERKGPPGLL
Description: Cell cGMP assay in HEK293 cells stably transfected with GC-B. It is filed as cell-based. The conditions noted are these: 10^−10 M, 10^−8M, or 10^−6M polypeptide for 10 minutes (FIGS. 14, 15).

Test [3] concerns the target T2, GC-A particulate guanylate cyclase receptors (Homo sapiens, UniProt P16066).
T2 construct: expressed in transfected cells; host or cells: HEK293
T2 sequence (P16066 33-1061): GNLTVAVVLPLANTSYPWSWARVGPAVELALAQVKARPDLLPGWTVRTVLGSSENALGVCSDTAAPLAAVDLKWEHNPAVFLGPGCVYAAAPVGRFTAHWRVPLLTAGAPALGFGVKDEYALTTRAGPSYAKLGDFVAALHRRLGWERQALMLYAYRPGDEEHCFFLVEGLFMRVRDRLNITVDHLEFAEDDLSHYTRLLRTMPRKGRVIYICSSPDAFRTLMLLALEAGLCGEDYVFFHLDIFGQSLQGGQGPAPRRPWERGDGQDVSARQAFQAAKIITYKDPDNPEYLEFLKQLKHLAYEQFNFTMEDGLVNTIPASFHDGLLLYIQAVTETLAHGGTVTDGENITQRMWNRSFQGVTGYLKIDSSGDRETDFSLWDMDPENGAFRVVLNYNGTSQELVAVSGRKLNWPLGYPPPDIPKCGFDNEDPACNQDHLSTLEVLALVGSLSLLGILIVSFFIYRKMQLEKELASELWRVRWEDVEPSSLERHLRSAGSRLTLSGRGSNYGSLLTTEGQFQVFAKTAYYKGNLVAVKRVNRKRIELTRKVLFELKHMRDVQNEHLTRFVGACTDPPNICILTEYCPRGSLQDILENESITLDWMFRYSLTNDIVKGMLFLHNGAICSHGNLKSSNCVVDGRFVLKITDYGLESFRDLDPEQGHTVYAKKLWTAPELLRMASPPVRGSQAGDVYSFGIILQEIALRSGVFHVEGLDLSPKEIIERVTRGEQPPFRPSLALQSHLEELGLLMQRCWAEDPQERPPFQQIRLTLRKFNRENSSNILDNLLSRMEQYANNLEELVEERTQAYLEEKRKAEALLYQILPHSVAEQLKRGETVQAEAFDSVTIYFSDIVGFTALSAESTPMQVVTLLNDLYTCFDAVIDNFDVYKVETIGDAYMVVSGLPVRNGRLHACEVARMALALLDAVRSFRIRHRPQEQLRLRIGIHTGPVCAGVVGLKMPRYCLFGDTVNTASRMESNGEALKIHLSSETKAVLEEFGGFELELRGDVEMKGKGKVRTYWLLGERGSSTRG
Description: Cell cGMP assay in HEK293 cells stably transfected with GC-A. It is filed as cell-based. The conditions noted are these: 10^−10 M, 10^−8M, or 10^−6M polypeptide for 10 minutes (FIGS. 14, 15).

Test [4] has as its system normal rats. Description: CRRL-090 ISP intravenous infusion in normal rats: blood glucose and plasma insulin. The format is in vivo, rat. The conditions noted are these: 1 pmol/kg/minute for 210 minutes intravenous infusion. Here is the method: CRRL-090 ISP was synthesized by direct protein synthesis and tested for biological activity in normal rats as follows. Two groups of normal rats were used. The first group included five normal rats, which were administered normal saline. The second group included seven normal rats, which were administered CRRL-090 (1 pmol/kg/minute for 210 minutes). Both administrations were via intravenous infusion.

Test [5] relates to diabetic rats (streptozotocin). Description: CRRL-090 ISP chronic subcutaneous pump treatment of streptozotocin diabetic rats. The format is in vivo, male Wistar rats. The method, then:
CRRL-090 ISP was synthesized by direct protein synthesis and tested for biological activity in diabetic rats as follows. Three groups of male Wistar rats (six rats per group) were used: normal control group, diabetic control group, and diabetic group treated with CRRL-090 ISP. One dose of streptozotocin was administered intraperitoneally to induce diabetes in the rats of the diabetic control group and diabetic group treated with CRRL-090 ISP. Two months after induction of diabetes, ALZET pumps (obtained from DURECT Corporation, ALZET Osmotic Pumps, P.O. Box 530, Cupertino, Calif.; Model 1007D) configured to release 0.1 μg/kg/minute of CRRL-090 ISP or saline as control were serially implanted subcutaneously every 14 days over the course of one month (2 pumps, one on day 0 and another on day 14). Cardiac function was assessed by echocardiography, neurohormones were measured by radioimmunoassays. Fibrosis was determined by picrosirius red staining.

A further test deals with diabetic rats. Description: Chronic CRRL-094 ISP-NP subcutaneous pump treatment of diabetic rats. The format is in vivo, male Wistar rats. The conditions noted are these: ALZET pumps subcutaneously 1 pmol/kg/minute. From the text: Three groups of male Wistar rats were used: (1) normal non-diabetic control rats, (2) diabetic control rats, and (3) diabetic rats treated with CRRL-094 ISP-NP. Two months after induction of diabetes, ALZET pumps (obtained from DURECT Corporation, ALZET Osmotic Pumps, P.O. Box 530, Cupertino, Calif.; Model 1007D) filled with CRRL-094 ISP-NP in saline (dose=1 pmol/kg/minute) or saline as control were serially implanted subcutaneously every 14 days over the course of one month. After four weeks of treatment, blood glucose levels, plasma insulin levels, body weight, plasma and urine cGMP levels, and left ventricular hypertrophy were measured. Blood glucose levels and body weight also were measured after two weeks of treatment.

Where [6] appears, read: after four weeks, compared to diabetic rats treated with saline (FIG. 19).

No end group written: not given here.

In the case of “SPKMVQG-SGCFGRKMDRISSSSGLGCKVLRRHGEGTFTSDSEAFIWLGR [CRRL-092 ISP-NP]”, in the test on normal dogs, the plasma insulin entry is listed as “increase in plasma insulin”, the plasma glucose result is reported as “reduction in plasma glucose” and the “plasma cGMP” value was “increase”. In addition, in the test with normal rats [1] (compared to placebo control rats (FIGS. 10, 12)), the plasma insulin entry is given as “increased plasma insulin”. For the same substance, in the test with normal rats [1] (compared to placebo control rats (FIGS. 11, 13)), the blood glucose entry is listed as “lower blood glucose”. Besides, the “activation of GC-B receptors (cGMP levels)” value in test [2] was “but not the GC-B receptors”. In test [3], the “activation of GC-A receptors (cGMP levels)” value is reported as “activated the GC-A receptors”.

As for “HGEGTFTSDSEAFIWLGR-amide (HGEGTFTSDSEAFIWLGR-NH2) [CRRL-090 ISP]”, the blood glucose levels entry with normal rats [4] (compared to control rats that received saline (FIG. 1)) is given as “lower blood glucose levels”; in test [5] (ALZET pumps subcutaneously 0.1 μg/kg/minute for one month starting two months after streptozotocin, compared to diabetic controls (FIG. 3)), “reduced blood glucose levels”. Also, the plasma insulin entry in the test with normal rats [4] (compared to control rats that received saline (FIG. 2)) is “increased plasma insulin”. The plasma insulin levels entry in test [5] (ALZET pumps subcutaneously 0.1 μg/kg/minute for one month, three months after streptozotocin, compared to diabetic controls (FIG. 4)) is recorded as “increased plasma insulin levels”. In addition, the “glomerular filtration rate (GFR)” value in test [5] (ALZET pumps subcutaneously 0.1 μg/kg/minute for one month, three months after streptozotocin, compared to diabetic controls (FIG. 5)) is reported as “increased glomerular filtration rate”. Moreover, in test [5] (ALZET pumps subcutaneously 0.1 μg/kg/minute for one month, three months after streptozotocin, compared to diabetic controls (FIG. 6)), the “left ventricular hypertrophy (LV/BW ratio)” value was “less left ventricular hypertrophy”.

As to “HGEGT-FTSDSEAFIWLGRRMDRIGLSKGCFGLKLDRIGSMSGLGCKVLRRH (HGEGTFTSDSEAFIWLGRRMDRIGLSKGCFGLKLDRIGSMSGLGCKVLRRH) [CRRL-094 ISP-NP]”, in the test with normal dogs, the plasma insulin entry is recorded as “increase in plasma insulin”, the plasma glucose result is “reduction in plasma glucose” and the “plasma cGMP” value is listed as “increase”. The “activation of GC-B receptors (cGMP levels)” value in test [2] was “activated both the GC-A and GC-B receptors”. The “activation of GC-A receptors (cGMP levels)” value in test [3] was “activated both the GC-A and GC-B receptors”. In addition, the plasma insulin result with diabetic rats (after four weeks, compared to diabetic rats treated with saline (FIG. 17)) is listed as “increased plasma insulin”. Besides, in the test with diabetic rats (setting [6]), the “plasma cGMP” value was “increased plasma and urine cGMP”; the “urine cGMP” value is “increased plasma and urine cGMP”. For the same substance, the “left ventricular hypertrophy (Left Ventricular Mass, LVMd)” value in the test on diabetic rats (after four weeks, compared to diabetic rats treated with saline (FIG. 20)) is “reduced left ventricular hypertrophy”. Also, the blood glucose result in the test on diabetic rats (four weeks, compared to diabetic rats treated with saline (FIG. 16)) is given as “reduced blood glucose”. Moreover, the body weight result with diabetic rats (four weeks, compared to diabetic rats treated with saline (FIG. 18)) is “reduced body weight”.
